Test results reported in patent US6562868B1, “Method for treatment of female sexual dysfunction” (Synphora AB, priority 1999, dated 2003).

Experiments:
cat eyes = assay: Irritant effect in cat eyes (behavioural model, degree of eyelid closure); format: in vivo; settings: for irritant effect in words, compared to PGE1-isopropyl ester: even at doses 1000 times higher than PGE1-isopropyl ester
Method: (§1) The effect of the test compounds on cavernous tissue was tested using penile tissue. As mentioned previously both in the male and female the genitals contain cavernous tissue, and the penile tissue can therefore be used as model for genital cavernous tissue. The general blood vessel relaxing effect of the test compounds was studied by investigating the immediate blood pressure decrease in rats upon intravenous infusion of the test compounds. The acute drop in blood pressure reflects a peripheral vasodilation in the animals brought about by the test compounds. The general irritative effect of the test compounds was studied in the cat eye which is very sensitive to noxious stimuli.
The irritant effect of the prostaglandin analogues was tested using a behavioural model in cats. In this model the irritant effect on the eye is studied by registering the degree of eyelid closure and the behaviour of the animals. Compounds that cause discomfort and pain in the eye cause the animals to close their eyes. The analogues were applied as carboxylic acid esters, to enhance bioavailability, topically on the eye as a single dose at different dose levels. The animals were then followed for several hours at regular intervals. Each compound and dose was tested on a group of 3-6 cats. At least 3 days elapsed between two consecutive tests on the same animals. An arbitrary scale from 0 (absence of irritation) to 3 (marked irritation), with half steps was used.

rabbit eye = settings: rabbits; Hall and Jaitly, 1977; cited from earlier work
[1] = tested on: human corpus cavernosum tissue; assay: Relaxation of isolated human penile cavernous tissue precontracted with norepinephrine, normalized to carbachol; format: cell-based; settings: FIG. 1, parallel curves; about half to one third as potent as PGE1
Method: as §1
Human penile cavernous tissue was obtained fresh from surgery, and representative tissue samples were mounted in smooth muscle tissue baths containing a modified Kreb's solution consisting of NaCl 119 mM, KCl 4.6 mM, MgCl2 1.2 mM, NaH2PO4 1.2 mM, NaHCO3 15 mM, CaCl2 1.5 mM and glucose 11 mM. The solution also contained indomethacin at a final concentration of about 3 μM. The solution was continuously bubbled by 95% O2 and 5% CO2, and the temperature was kept at 37° C. […]

[2] = tested on: rabbit penile blood vessels; assay: Vasorelaxation of isolated rabbit penile blood vessel ring segments in a small vessel myograph, normalized to papaverine; format: cell-based; settings: FIG. 2; precontracted with 10^−6 M norepinephrine
Method: To study the effect of the PGE1 and […]-OH-PGE2 on the penile vasculature, penile blood vessels of the rabbit were isolated and mounted as ring segments in a small vessel myograph (J.P. Trading, Denmark) containing a solution consisting of NaCl 119 mM, KCl 4.7 mM, CaCl2 1.5 mM, MgSO4 1.17 mM, KH2PO4 1.18 mM, NaHCO3 25 mM, EDTA 0.027 mM and glucose 11 mM. The solution also contained indomethacin at a final concentration of about 3 μM, and was continuously bubbled by 95% O2 and 5%CO2. The temperature was kept constant at 37° C. The vessels were stretched and then precontracted using 10^-6 M norepinephrine, and the vasorelaxant effect of the prostaglandin analogues was normalized by comparing it to that of papaverine in the same preparation. Cumulative concentration-response curves were constructed for the analogues.

cat eye = assay: Intraocular pressure in cats by pneumatonometry after topical administration; format: in vivo; settings: 1 hour after topical administration; 3 cats, local anaesthesia; before treatment 16.3+/−0.9 mmHg; control eyes 15.7+/−0.7
Method: To confirm that 19R-OH-PGE2-methyl ester, which is more hydrophilic than PGE1-isopropyl ester, indeed penetrates into the cornea and the intraocular parts of the eye we measured the intraocular pressure in 3 cats under local anaesthesia before and 1 hour after topical administration of the prostaglandin to the eye. The intraocular pressure was measured by pneumatonometry. One eye was treated with the test compound and the other eye received the vehicle only. In the eyes treated topically with 19R-OH-PGE2-methyl ester the intraocular pressure decreased from 16.3+/−0.9 mmHg to 12.7+/−1.2 mmHg, whereas it was 16.3+/−0.9 mmHg and 15.7+/−0.7 mmHg in the control eyes at the same time points. It is well known that prostaglandins reduce the intraocular pressure in cats (Bito et al., 1989), and it can thus be taken as an evidence that the drug has penetrated into the eye. […] Thus the absence of pain and irritation after administration of 18RS-OH-PGE2, 19R-OH-PGE2 and 20-OH-PGE2 cannot be explained en the basis of increased hydrophilicity and poor bioavailability.

CCC(O)CC[C@H](O)/C=C/[C@H]1[C@H](O)CC(=O)[C@@H]1C/C=C\CCCC(=O)OC (stereo partly drawn) [18RS-OH—PGE2-me, 18RS-hydroxy PGE2 methyl ester]
irritant effect in words, compared to PGE1-isopropyl ester (cat eyes): no or markedly reduced irritant effect

C[C@@H](O)CCC[C@H](O)/C=C/[C@H]1[C@H](O)CC(=O)[C@@H]1C/C=C\CCCC(=O)O [19R-OH-PGE2, 19R-hydroxy-prostaglandin E2]
irritant effect on ocular structures (rabbit eye): inducing swelling of the ocular structures | lid closure (rabbit eye): does not cause lid closure | irritation by swelling of the ocular structures (cat eyes; cat eye): no evidence of such irritation | factor by which concentration-response curve differs from PGE1 (less potent) [1]: 2-3 | vasodilatory effect (efficacy and potency, PGE1 versus 19R-OH-PGE2) [2]: the same efficacy in inducing vasodilatation and were also about equipotent

COC(=O)CCC/C=C\C[C@H]1C(=O)C[C@@H](O)[C@@H]1/C=C/[C@@H](O)CCC[C@@H](C)O [19R-OH—PGE2-me, 19-R-hydroxy-prostaglandin E2-methyl ester]
intraocular pressure (cat eye): 12.7+/−1.2 mmHg | irritant effect in words, compared to PGE1-isopropyl ester (cat eyes): no or markedly reduced irritant effect

CCCCC[C@H](O)/C=C/[C@H]1[C@H](O)CC(=O)[C@@H]1CCCCCCC(=O)O [PGE1, reference compound]
vasodilatory effect (efficacy and potency, PGE1 versus 19R-OH-PGE2) [2]: the same efficacy in inducing vasodilatation and were also about equipotent
